Consider 27 compounds from US8771665B2 (Cocrystal Discovery, Inc., priority 2010, dated 2014).

The structures appear in SMILES notation. pIC50: −log10 of the molar value. Where two headings read alike, the source gives them in different places.

In this assay the target is T1, HCV1b NS5B polymerase delta 21 (Hepatitis C virus genotype 1b, UniProt P26663).
T1 construct: purified HCV1b NS5B polymerase delta 21
The experiment in a line: RNA-Dependent RNA HCV NS5B (Polymerase) Assay and IC50 Determination. Type of assay: biochemical. As to the method:
RNA-Dependent RNA HCV NS5B (Polymerase) Assay and IC50 Determination
In vitro RNA-dependent RNA polymerase activity was determined in a reaction mixture (50 μL) containing 50 mM Tris-HCl, pH 7.5, 5 mM MgCl2, 1 mM dithiothreitol, 0.5% Triton® X-100, 10 μM of UTP, 0.1-0.5 μCi of α-^32P UTP (Perkin Elmer Life Sciences), 1 μg of polyA:U16 (Midland Oligo), and 0.6 μg of purified HCV1b NS5B polymerase delta 21. Different concentrations of compounds were added to the reaction mixtures. The reaction was carried out at RT (23° C.) for 60 min and then stopped by the addition of 100 μL of 50 mM EDTA. The reaction mixtures were filtered through either a DE81 membrane or a positively charged nylon membrane, and the membranes were then extensively washed with 30 mM sodium citrate, pH 7.0 and 300 mM NaCl. The radiolabeled RNA products were quantitated using a Storm™ Phosphorlmager™ (GE Life Sciences). IC50 values were calculated using GraFit 6 and GraphPad Prism 5 from triplicate assays.

T1 sequence (P26663 2420-2989): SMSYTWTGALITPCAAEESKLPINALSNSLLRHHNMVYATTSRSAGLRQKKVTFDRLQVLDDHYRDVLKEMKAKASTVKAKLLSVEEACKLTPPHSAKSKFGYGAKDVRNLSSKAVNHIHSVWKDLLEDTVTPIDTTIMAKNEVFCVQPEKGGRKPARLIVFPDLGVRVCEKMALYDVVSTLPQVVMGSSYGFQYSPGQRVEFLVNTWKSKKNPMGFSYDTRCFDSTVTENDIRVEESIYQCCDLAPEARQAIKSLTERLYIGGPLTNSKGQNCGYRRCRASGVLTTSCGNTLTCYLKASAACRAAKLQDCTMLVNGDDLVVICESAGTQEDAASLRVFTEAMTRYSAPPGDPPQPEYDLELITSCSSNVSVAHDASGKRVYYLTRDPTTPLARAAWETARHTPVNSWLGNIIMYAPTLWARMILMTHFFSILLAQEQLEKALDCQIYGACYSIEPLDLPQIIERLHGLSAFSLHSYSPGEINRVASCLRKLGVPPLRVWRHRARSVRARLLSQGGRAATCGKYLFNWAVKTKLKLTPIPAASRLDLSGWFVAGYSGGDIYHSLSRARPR

Take `CCN1CCC(c2cc(-c3ccc(NC(=O)c4ccco4)cc3)sc2C(=O)O)=C(C2CCC(C)CC2)C1` (stereo not drawn) [Example 054, 3-[1-Ethyl-5-(4-methyl-cyclohexyl)-1,2,3,6-tetrahydro-pyridin-4-yl]-5-{4-[(furan-2-carbonyl)-amino]-phenyl}-thiophene-2-carboxylic acid]: the pIC50 is over 5.52.
`CCN1CCC(c2cc(-c3ccc(NC(=O)c4cc[nH]n4)cc3)sc2C(=O)O)=C(C2CCC(C)CC2)C1` (stereo not drawn) [Example 055, 3-[1-Ethyl-5-(4-methyl-cyclohexyl)-1,2,3,6-tetrahydro-pyridin-4-yl]-5-{4-[(1H-pyrazole-3-carbonyl)-amino]-phenyl}-thiophene-2-carboxylic acid] had a pIC50 of over 5.52.
`CCN1CCC(c2cc(-c3ccc(NC(=O)c4cn[nH]c4)cc3)sc2C(=O)O)=C(C2CCC(C)CC2)C1` (stereo not drawn) [Example 056, 3-[1-Ethyl-5-(4-methyl-cyclohexyl)-1,2,3,6-tetrahydro-pyridin-4-yl]-5-{4-[(1H-pyrazole-4-carbonyl)-amino]-phenyl}-thiophene-2-carboxylic acid] showed a pIC50 of 5.00 to 5.52.
The compound `CCN1CCC(c2cc(-c3ccc(NC(=O)c4cn(C)cn4)cc3)sc2C(=O)O)=C(C2CCC(C)CC2)C1` (stereo not drawn) [Example 057, 3-[1-Ethyl-5-(4-methyl-cyclohexyl)-1,2,3,6-tetrahydro-pyridin-4-yl]-5-{4-[(1-methyl-1H-imidazole-4-carbonyl)-amino]-phenyl}-thiophene-2-carboxylic acid] gave a pIC50 of over 5.52.
On the same count and under the same terms, as for `CCN1CCC(c2cc(-c3ccc(NC(=O)C4CCCO4)cc3)sc2C(=O)O)=C(C2CCC(C)CC2)C1` (stereo not drawn) [Example 058, 3-[1-Ethyl-5-(4-methyl-cyclohexyl)-1,2,3,6-tetrahydro-pyridin-4-yl]-5-{4-[(tetrahydro-furan-2-carbonyl)-amino]-phenyl}-thiophene-2-carboxylic acid], the figure is over 5.52; as for `CC1CCC(C2=C(c3cc(-c4ccc(NC(=O)c5cscn5)c(F)c4)sc3C(=O)O)CCN(C)C2)CC1` (stereo not drawn) [Example 059, 5-{3-Fluoro-4-[(thiazole-4-carbonyl)-amino]-phenyl}-3-[1-methyl-5-(4-methyl-cyclohexyl)-1,2,3,6-tetrahydro-pyridin-4-yl]-thiophene-2-carboxylic acid], over 5.52; as for `CC1CCC(C2=C(c3cc(-c4ccc(NC(=O)c5cscn5)cc4F)sc3C(=O)O)CCN(C)C2)CC1` (stereo not drawn) [Example 060, 5-{2-Fluoro-4-[(thiazole-4-carbonyl)-amino]-phenyl}-3-[1-methyl-5-(4-methyl-cyclohexyl)-1,2,3,6-tetrahydro-pyridin-4-yl]-thiophene-2-carboxylic acid], over 5.52.
As to `CCN1CCC(c2cc(-c3ccc(NCc4cscn4)cc3)sc2C(=O)O)=C(C2CCC(C)CC2)C1` (stereo not drawn) [Example 061, 3-[1-Ethyl-5-(4-methyl-cyclohexyl)-1,2,3,6-tetrahydro-pyridin-4-yl]-5-{4-[(thiazol-4-ylmethyl)-amino]-phenyl}-thiophene-2-carboxylic acid], the pIC50 is under 5.00.
The same measure, in the same setting: the result for `CCN1CCC(c2cc(-c3ccc(C(=O)Nc4ccccn4)cc3)sc2C(=O)O)=C(C2CCC(C)CC2)C1` (stereo not drawn) [Example 062, 3-[1-Ethyl-5-(4-methyl-cyclohexyl)-1,2,3,6-tetrahydro-pyridin-4-yl]-5-[4-(pyridin-2-ylcarbamoyl)-phenyl]-thiophene-2-carboxylic acid] reads over 5.52; that for `CN1CCC(c2cc(-c3ccccc3)sc2C(=O)O)=C(CCC2CCCC2)C1` [Example 063, 3-[5-(2-Cyclopentyl-ethyl)-1-methyl-1,2,3,6-tetrahydro-pyridin-4-yl]-5-phenyl-thiophene-2-carboxylic acid], under 5.00.
`CN1CCC(c2cc(-c3ccccc3)sc2C(=O)O)=C(C2CCC(C(F)(F)F)CC2)C1` (stereo not drawn) [Example 064, 3-[1-Methyl-5-(4-trifluoromethyl-cyclohexyl)-1,2,3,6-tetrahydro-pyridin-4-yl]-5-phenyl-thiophene-2-carboxylic acid] showed a pIC50 of under 5.00.
On the same count and under the same terms, the result for `CC1CCC(C2=C(c3cc(C#CC(C)(C)C)sc3C(=O)O)CN(CC3CCOCC3)CC2)CC1` (stereo not drawn) [Example 065, 5-(3,3-Dimethyl-but-1-ynyl)-3-[4-(4-methyl-cyclohexyl)-1-(tetrahydro-pyran-4-ylmethyl)-1,2,5,6-tetrahydro-pyridin-3-yl]-thiophene-2-carboxylic acid] reads over 5.52; that for `CCN1CCC(c2cc(-c3ccc(NC(=O)c4nccs4)cc3)sc2C(=O)O)=C(C2CCC(C)CC2)C1` (stereo not drawn) [Example 066, 3-[1-Ethyl-5-(4-methyl-cyclohexyl)-1,2,3,6-tetrahydro-pyridin-4-yl]-5-{4-[(thiazole-2-carbonyl)-amino]-phenyl}-thiophene-2-carboxylic acid], over 5.52; that for `CC1CCC(C2=C(c3cc(-c4ccc(N(C)C(=O)c5cscn5)cc4)sc3C(=O)O)CCN(C)C2)CC1` (stereo not drawn) [Example 067, 3-[1-Methyl-5-(4-methyl-cyclohexyl)-1,2,3,6-tetrahydro-pyridin-4-yl]-5-{4-[methyl-(thiazole-4-carbonyl)-amino]-phenyl}-thiophene-2-carboxylic acid], 5.00 to 5.52.
Consider `CC1CC=C(C2=C(c3cc(C#CC(C)(C)C)sc3C(=O)O)CCN(C)C2)CC1` (stereo not drawn) [Example 068, 5-(3,3-Dimethyl-but-1-ynyl)-3-[1-methyl-5-(4-methyl-cyclohex-1-enyl)-1,2,3,6-tetrahydro-pyridin-4-yl]-thiophene-2-carboxylic acid], for which the pIC50 was over 5.52.
On to `CC1CC=C(C2=C(c3cc(-c4ccc(NC(=O)c5nccs5)cc4)sc3C(=O)O)CCN(C)C2)CC1` (stereo not drawn) [Example 069, 3-[1-Methyl-5-(4-methyl-cyclohex-1-enyl)-1,2,3,6-tetrahydro-pyridin-4-yl]-5-{4-[(thiazole-2-carbonyl)-amino]-phenyl}-thiophene-2-carboxylic acid], for which the pIC50 is over 5.52.
On the same count and under the same terms, as for `CC1CC=C(C2=C(c3cc(-c4ccc(-c5cc6ncccn6n5)cc4)sc3C(=O)O)CCN(C)C2)CC1` (stereo not drawn) [Example 070, 3-[1-Methyl-5-(4-methyl-cyclohex-1-enyl)-1,2,3,6-tetrahydro-pyridin-4-yl]-5-(4-pyrazolo[1,5-a]pyrimidin-2-yl-phenyl)-thiophene-2-carboxylic acid], the figure is over 5.52; as for `CC(=O)N1CCC(c2cc(-c3ccccc3)sc2C(=O)O)=C(C2CCC(C)CC2)C1` (stereo not drawn) [Example 071, 3-[1-Acetyl-5-(4-methyl-cyclohexyl)-1,2,3,6-tetrahydro-pyridin-4-yl]-5-phenyl-thiophene-2-carboxylic acid], over 5.52; as for `CC1CCC(C2=C(c3cc(-c4ccccc4)sc3C(=O)O)CCN(C(=O)c3ccccc3)C2)CC1` (stereo not drawn) [Example 072, 3-[1-Benzoyl-5-(4-methyl-cyclohexyl)-1,2,3,6-tetrahydro-pyridin-4-yl]-5-phenyl-thiophene-2-carboxylic acid], under 5.00.
Compound `CC1CCC(C2=C(c3cc(-c4ccccc4)sc3C(=O)O)CCN(C(=O)OCc3ccccc3)C2)CC1` (stereo not drawn) [Example 073] gave a pIC50 of under 5.00.
Same read-out and setting: the result for `COC(=O)N1CCC(c2cc(-c3ccccc3)sc2C(=O)O)=C(C2CCC(C)CC2)C1` (stereo not drawn) [Example 074, 4-(2-Carboxy-5-phenyl-thiophen-3-yl)-5-(4-methyl-cyclohexyl)-3,6-dihydro-2H-pyridine-1-carboxylic acid methyl ester] reads 5.00 to 5.52; that for `CC1CCC(C2=C(c3cc(-c4ccccc4)sc3C(=O)O)CCN(C(=O)CCc3ccccc3)C2)CC1` (stereo not drawn) [Example 076, 3-[5-(4-Methyl-cyclohexyl)-1-(3-phenyl-propanoyl)-1,2,3,6-tetrahydropyridin-4-yl]-5-phenyl-thiophene-2-carboxylic acid], under 5.00; that for `CCCC(=O)N1CCC(c2cc(-c3ccccc3)sc2C(=O)O)=C(C2CCC(C)CC2)C1` (stereo not drawn) [Example 077, 3-[1-Butyryl-5-(4-methyl-cyclohexyl)-1,2,3,6-tetrahydro-pyridin-4-yl]-5-phenyl-thiophene-2-carboxylic acid], 5.00 to 5.52.
The same measure, in the same setting: the result for `CC1CCC(C2=C(c3cc(-c4ccccc4)sc3C(=O)O)CCN(CCc3ccccc3)C2)CC1` (stereo not drawn) [Example 078, 3-[5-(4-Methyl-cyclohexyl)-1-phenethyl-1,2,3,6-tetrahydro-pyridin-4-yl]-5-phenyl-thiophene-2-carboxylic acid] reads under 5.00.
Take `CC1CCC(C2=C(c3cc(-c4ccccc4)sc3C(=O)O)CCN(Cc3ccccc3)C2)CC1` (stereo not drawn) [Example 079, 3-[1-Benzyl-5-(4-methyl-cyclohexyl)-1,2,3,6-tetrahydro-pyridin-4-yl]-5-phenyl-thiophene-2-carboxylic acid]: for the setting “purified HCV1b NS5B polymerase delta 21, polyA:U16, RT 60 min, triplicate assays”, the pIC50 was 5.00 to 5.52.
In turn, `CC1CCC(C2=C(c3cc(-c4ccccc4)sc3C(=O)O)CCN(CCCCc3ccccc3)C2)CC1` (stereo not drawn) [Example 080, 3-[5-(4-Methyl-cyclohexyl)-1-(4-phenyl-butyl)-1,2,3,6-tetrahydro-pyridin-4-yl]-5-phenyl-thiophene-2-carboxylic acid] had a pIC50 of under 5.00.
Still for that read-out and setting: as for `CC1CCC(C2=C(c3cc(-c4ccccc4)sc3C(=O)O)CCN(CC(=O)O)C2)CC1` (stereo not drawn) [Example 082, 3-[1-Carboxymethyl-5-(4-methyl-cyclohexyl)-1,2,3,6-tetrahydro-pyridin-4-yl]-5-phenyl-thiophene-2-carboxylic acid], the figure is 5.00 to 5.52.
